Laboratory results published in patent US12617818B2, “Compositions and methods for modulating myosin subfragment-2 coiled coil stability and methods for using them” (UNIVERSITY OF NORTH TEXAS, priority 2020, dated 2026).

Experiments:
[1] = target: T1, cardiac muscle myosin S2 mutant peptide E930del (MYH7) (Homo sapiens, UniProt P12883, DEL930-930); assay: FRET of E930del mutant cardiac myosin S2 peptide dimer with stabilizer; assay type: binding
T1 construct: cardiac muscle myosin S2 peptides region 921 to 939; host or cells: chemical synthesis
Text: This mutation cause mechanical instability and unstable coiled coil. Again the sequence of this mutation was obtained using PDB. An 18 residue peptide of this region was chemically synthesized. Generated amino acid sequence used is as follow: • E930del: NH2-[…]—COOH (SEQ ID NO:8)
(§1) Resonance energy probes (donor and acceptor) were covalently attached to synthetic myosin S2 peptides of cardiac muscle, E930del cardiac muscle, E924K cardiac muscle, smooth muscle, and skeletal muscle (Aboonasrshiraz, N., 2020).
Acceptor probe was conjugated to muscle myosin S2 peptides at N-terminus. Muscle myosin S2 peptides were dissolved in 20 mM HEPES buffer at pH 8.0. And FITC was dissolved in few drops of N, N dimethyl formamide. Lastly, FITC and muscle myosin S2 peptide was reacted together in 1 to 1 molar ratio and was let to react for 120 minutes at room temperature. The FITC conjugated S2 peptides were purified using […]. […]
(§2) In FRET assay, Fluorescein Isothiocyanate (FITC) functioned as fluorescent acceptor probe and Terbium Diethylene Triamine Pentaacetic Acid-Cytosine (Lanthanide-DTPA-Cytosine) functioned as donor probe. […] Lifetime of donor probe was measured in milliseconds.
In FRET assay, like E924K, Edel930 was treated with different concentrations of the stabilizer. […] Calculated separation distance in presence of the stabilizer peptide was 3.38 nm.

[2] = target: skeletal muscle myosin S2 peptide (MYH2) (Homo sapiens, UniProt Q9UKX2); assay: FRET of skeletal muscle myosin S2 peptide dimer with anti-S2 peptides; assay type: binding; design: A 19 residue peptide of the S2 region of MYH2 was matched to the previously synthesized S2 peptide; host or cells: chemical synthesis; details: Skeletal peptide with Stabilizer
Text: MYH2 gene codes for human skeletal muscle myosin expressed in fast type IIA muscle fibers. This myosin isoform can be found within extraocular muscle. A 19 residue peptide of the S2 region of MYH2 was matched to the previously synthesized S2 peptide of cardiac isoform and chemically synthesized […]. Generated amino acid sequence used is as follow: residues 925 to 945
as §1
Acceptor probe was conjugated to muscle myosin S2 peptides at N-terminus. Muscle myosin S2 peptides were dissolved in 20 mM HEPES buffer at pH 8.0. And FITC was dissolved in few drops of N, N dimethyl formamide. […]
as §2
Like cardiac muscle myosin S2^pep, dilution by decreasing the concentration of dimer skeletal muscle myosin S2^pep was performed and further was treated with different concentrations of anti-S2 peptides (FIG. 28A, 28B). […] Calculated separation distance in presence of the stabilizer peptide was 3.58 nm.

For C[C@H](NC(=O)[C@H](CCCCN)NC(=O)[C@H](Cc1ccccc1)NC(=O)[C@H](CCCCN)NC(=O)[C@H](CCCCN)NC(=O)[C@H](CCCCN)NC(=O)[C@H](CCCCN)NC(=O)[C@H](CCCCN)NC(=O)[C@H](CCCCN)NC(=O)[C@H](CCCCN)NC(=O)[C@@H](N)CCCCN)C(=O)N[C@@H](CCCCN)C(=O)N[C@@H](CCCCN)C(=O)N[C@@H](CCCCN)C(=O)N[C@@H](CCCCN)C(=O)N[C@@H](CCCCN)C(=O)N[C@@H](CCCCN)C(=O)O [Stabilizer], the “TD (donor lifetime without acceptor)” value [1] was 1.89E−03 and the “TD (donor lifetime without acceptor)” value [2] was 1.73E−03.
